This note sets out measurements from patent US8394785B2, “Methods for the treatment and amelioration of urticaria” (Jado Technologies GmbH, priority 2005, dated 2013).

Data set [1] deals with human basophils. The data set is described as follows: Histamine release assay, C5a induced, human basophils. The data set is classed as cell-based. The procedure:
(§1) Human basophils were isolated from whole blood using ficoll paque (D=1.077). Briefly, heparinized whole blood was diluted 1:3 with PBS (w/o Ca and Mg), layered on the ficoll paque solution, and centrifuged for 30 min at 400×g. Low-density particles such as lymphocytes, monocytes, basophils, and platelets were recovered from the interface between the plasma and ficoll solution. The cell suspension from the interface was centrifuged twice at 200×g for 10 min for removal of thrombocytes from the basophil fraction. The number of basophils in the cell suspension was determined by Toluidin blue staining. The yield of basophils was approximately 2%. These pre-purified basophils were used for the histamine release assay. For the cytokine release assays, basophils were further purified using the “Basophil Isolation Kit” for depletion of non-basophils from the interface cell suspension. […] The quantification of histamine levels was achieved using an automated histamine-analyser system (Firm Borgwelt Technik). The wavelength of the excitation was 355-360 nm and the emission wavelength of fluorescence measurement was 450-460 nm. The intensity of fluorescence was directly proportional to the concentration of histamine in the samples. The amount of released histamine was calculated according to the following formula: net histamine release=(release−blank)×(100/complete). […]

The subject of data set [2] is C57 mouse mast cell line transfected with the alpha chain of the human high affinity IgE receptor. The data set is described as follows: Histamine release assay, anti-human-IgE induced, C57 cells. The data set is classed as cell-based. The note with it: anti-human-IgE stimulation; 60 min pre-incubation. How it is done: Stock solution of miltefosine (5 mM) was prepared in DMSO and stored at −20° C. For preparation of the working concentration (2 mM), the stock solution was diluted with PAG-CM (PAG-CM=PIPES Albumin Glucose with Calcium und Magnesium). All other dilutions of miltefosine were prepared with 40% DMSO in PAG-CM buffer. The quantification of histamine levels was achieved using an automated histamine-analyser system (Firm Borgwelt Technik). The wavelength of the excitation was 355-360 nm and the emission wavelength of fluorescence measurement was 450-460 nm. The intensity of fluorescence was directly proportional to the concentration of histamine in the samples. The amount of released histamine was calculated according to the following formula: net histamine release=(release−blank)×(100/complete). “Release”, in this context, was defined as the supernatant of stimulated cells, e.g. by anti-IgE, whereas supernatants of non stimulated cells, i.e. spontaneous release, was termed “blank”. “Complete” stands for the total histamine content of mast cells (after lysing with perchloric acid). The histamine release assays were performed in the PAG-CM buffer system. The numbers of mast cells or basophils in each sample used for histamine release assays was approximately 1×10^4 cells. For stimulation, cells were exposed to anti-IgE, Substance P, Ca-ionophore, or C5a. […]

Data set [3] relates to human basophils. The data set is described as follows: Histamine release assay, anti-IgE induced, human basophils. As to conditions: 10 minutes pre-incubation, read-out: maximal inhibitory effect on anti-IgE induced histamine release. The data set is classed as cell-based. The procedure: as §1
Data set [4] deals with membrane integrity (lactate dehydrogenase release).

Regarding `CCCCCCCCCCCCCCCCOP(=O)([O-])OCC[N+](C)(C)C` [Compound 3, 1-hexadecylphosphoryl-choline], the inhibition at 25 µM in the data set with human basophils [1] worked out at 75%; in the data set on human basophils [3], 10%. In addition, the “maximal inhibition of histamine release” value in data set [2] was determined as 40%. In data set [4], this compound yielded a CD50 of 69.5 µM.
